ChEMBL document CHEMBL3885861, “Open TG-GATES”

Species: Rattus norvegicus
Test: Open TG-GATES - Regimen: Daily Repeat
Format: toxicity, organism-based, Sprague-Dawley
Parameters: regimen Daily Repeat, gender Male, age 6 weeks
Details: in vivo, po, 40 mg/kg, route gavage, dose level Low; for APTT / Bas / Eos / Fbg / Hb / Ht / Lym / MCH / MCHC / MCV / Mono / Neu / PT / Plat / RBC / Ret / WBC: tissue Blood; for KIDNEY_L / KIDNEY_R / KIDNEY_TOTAL: tissue Kidney; for LIVER: tissue Liver; for A/G / ALP / ALT / AST / BUN / CRE / Ca / Cl / DBIL / GLC / IP / K / LDH / Na / PL / RALB / TBIL / TC / TG / TP / gamma-GTP: tissue Plasma

## COc1ccc(Cc2nccc3cc(OC)c(OC)cc23)cc1OC [PAPAVERINE]
72 h, time 3 day
  TERMINAL_BW: 246.9 g
  APTT: 21.6 s
  Bas: 0%
  Eos: 0.6%
  Fbg: 325.8 mg/dL
  Hb: 13.1 g/dL
  Ht: 39.6%
  Lym: 77.6%
  MCH: 21.1 pg
  MCHC: 33.2%
  MCV: 63.6 fL
  Mono: 2.8%
  Neu: 18%
  PT: 15.5 s
  Plat: 124.7 x10_4/uL
  RBC: 624.6 x10_4/ul
  Ret: 6.8%
  WBC: 102.4 x10_2/uL
  KIDNEY_L: 1 g
  KIDNEY_R: 1.1 g
  KIDNEY_TOTAL: 2.1 g
  LIVER: 11.6 g
  A/G: 1.2
  ALP: 1776.4 IU/L
  ALT: 44.2 IU/L
  AST: 73 IU/L
  BUN: 17 mg/dL
  CRE: 0.1 mg/dL
  Ca: 10.9 mg/dL
  Cl: 107.6 meq/L
  DBIL: 0 mg/dL
  GLC: 185.4 mg/dL
  IP: 7.5 mg/dL
  K: 4.5 meq/L
  LDH: 184 IU/L
  Na: 142.2 meq/L
  PL: 153.4 mg/dL
  RALB: 3 g/dL
  TBIL: 0.008 mg/dL
  TC: 77.8 mg/dL
  TG: 126 mg/dL
  TP: 5.6 g/dL
  gamma-GTP: 1.4 IU/L
[…], time 7 day
  TERMINAL_BW: 281.8 g
  APTT: 21.6 s
  Bas: 0%
  Eos: 1%
  Fbg: 317.8 mg/dL
  Hb: 13.1 g/dL
  Ht: 38.8%
  Lym: 80.2%
  MCH: 20.8 pg
  MCHC: 33.7%
  MCV: 61.8 fL
  Mono: 2.2%
  Neu: 15.8%
  PT: 15.4 s
  Plat: 123 x10_4/uL
  RBC: 628 x10_4/ul
  Ret: 6.3%
  WBC: 124.1 x10_2/uL
  KIDNEY_L: 1.2 g
  KIDNEY_R: 1.2 g
  KIDNEY_TOTAL: 2.4 g
  LIVER: 13.2 g
  A/G: 1.2
  ALP: 1841.6 IU/L
  ALT: 40.6 IU/L
  AST: 67.2 IU/L
  BUN: 19.8 mg/dL
  CRE: 0.1 mg/dL
  Ca: 10.8 mg/dL
  Cl: 106 meq/L
  DBIL: 0 mg/dL
  GLC: 189.6 mg/dL
  IP: 6.8 mg/dL
  K: 4.5 meq/L
  LDH: 157 IU/L
  Na: 140.8 meq/L
  PL: 155.6 mg/dL
  RALB: 3 g/dL
  TBIL: 0.002 mg/dL
  TC: 76.4 mg/dL
  TG: 132.6 mg/dL
  TP: 5.5 g/dL
  gamma-GTP: 2.6 IU/L
[…], time 14 day
  TERMINAL_BW: 316.9 g
  APTT: 23 s
  Bas: 0%
  Eos: 0.6%
  Fbg: 342.6 mg/dL
  Hb: 14.2 g/dL
  Ht: 41.8%
  Lym: 79%
  MCH: 19.7 pg
  MCHC: 34%
  MCV: 57.9 fL
  Mono: 2%
  Neu: 16.6%
  PT: 15.6 s
  Plat: 111.2 x10_4/uL
  RBC: 722.6 x10_4/ul
  Ret: 4.6%
  WBC: 128.3 x10_2/uL
  KIDNEY_L: 1.2 g
  KIDNEY_R: 1.2 g
  KIDNEY_TOTAL: 2.5 g
  LIVER: 14.1 g
  A/G: 1.1
  ALP: 1354 IU/L
  ALT: 40.6 IU/L
  AST: 67.4 IU/L
  BUN: 20.2 mg/dL
  CRE: 0.2 mg/dL
  Ca: 10.2 mg/dL
  Cl: 106.4 meq/L
  DBIL: 0 mg/dL
  GLC: 193.4 mg/dL
  IP: 6.9 mg/dL
  K: 4.2 meq/L
  LDH: 151.6 IU/L
  Na: 143 meq/L
  PL: 139.2 mg/dL
  RALB: 2.9 g/dL
  TBIL: 0.014 mg/dL
  TC: 64.2 mg/dL
  TG: 168 mg/dL
  TP: 5.7 g/dL
  gamma-GTP: 2 IU/L
[…], time 28 day
  TERMINAL_BW: 422.2 g
  APTT: 25.2 s
  Bas: 0%
  Eos: 1%
  Fbg: 319 mg/dL
  Hb: 14.5 g/dL
  Ht: 43.8%
  Lym: 80%
  MCH: 19.1 pg
  MCHC: 33.1%
  MCV: 57.7 fL
  Mono: 1.8%
  Neu: 15.8%
  PT: 15.8 s
  Plat: 105.3 x10_4/uL
  RBC: 760.4 x10_4/ul
  Ret: 3.1%
  WBC: 151.9 x10_2/uL
  KIDNEY_L: 1.4 g
  KIDNEY_R: 1.5 g
  KIDNEY_TOTAL: 2.9 g
  LIVER: 17.3 g
  A/G: 1.1
  ALP: 1003.2 IU/L
  ALT: 36.4 IU/L
  AST: 62.2 IU/L
  BUN: 20 mg/dL
  CRE: 0.2 mg/dL
  Ca: 10.2 mg/dL
  Cl: 106 meq/L
  DBIL: 0 mg/dL
  GLC: 196 mg/dL
  IP: 6 mg/dL
  K: 4.1 meq/L
  LDH: 141.6 IU/L
  Na: 141.8 meq/L
  PL: 142.4 mg/dL
  RALB: 3.2 g/dL
  TBIL: 0.008 mg/dL
  TC: 68.6 mg/dL
  TG: 152.4 mg/dL
  TP: 6 g/dL
  gamma-GTP: 2.6 IU/L
